Experimental data published in publication PMC9997933, “Anticancer derivative of the natural alkaloid, theobromine, inhibiting EGFR protein: Computer-aided drug discovery approach” (PLOS ONE, 2023).

Molecular target: EGFR (Homo sapiens, UniProt P00533)
Experiment: in vitro EGFR inhibition, Human EGFR ELISA kit
Assay type: biochemical

Chain of EGFR (P00533 25-1210): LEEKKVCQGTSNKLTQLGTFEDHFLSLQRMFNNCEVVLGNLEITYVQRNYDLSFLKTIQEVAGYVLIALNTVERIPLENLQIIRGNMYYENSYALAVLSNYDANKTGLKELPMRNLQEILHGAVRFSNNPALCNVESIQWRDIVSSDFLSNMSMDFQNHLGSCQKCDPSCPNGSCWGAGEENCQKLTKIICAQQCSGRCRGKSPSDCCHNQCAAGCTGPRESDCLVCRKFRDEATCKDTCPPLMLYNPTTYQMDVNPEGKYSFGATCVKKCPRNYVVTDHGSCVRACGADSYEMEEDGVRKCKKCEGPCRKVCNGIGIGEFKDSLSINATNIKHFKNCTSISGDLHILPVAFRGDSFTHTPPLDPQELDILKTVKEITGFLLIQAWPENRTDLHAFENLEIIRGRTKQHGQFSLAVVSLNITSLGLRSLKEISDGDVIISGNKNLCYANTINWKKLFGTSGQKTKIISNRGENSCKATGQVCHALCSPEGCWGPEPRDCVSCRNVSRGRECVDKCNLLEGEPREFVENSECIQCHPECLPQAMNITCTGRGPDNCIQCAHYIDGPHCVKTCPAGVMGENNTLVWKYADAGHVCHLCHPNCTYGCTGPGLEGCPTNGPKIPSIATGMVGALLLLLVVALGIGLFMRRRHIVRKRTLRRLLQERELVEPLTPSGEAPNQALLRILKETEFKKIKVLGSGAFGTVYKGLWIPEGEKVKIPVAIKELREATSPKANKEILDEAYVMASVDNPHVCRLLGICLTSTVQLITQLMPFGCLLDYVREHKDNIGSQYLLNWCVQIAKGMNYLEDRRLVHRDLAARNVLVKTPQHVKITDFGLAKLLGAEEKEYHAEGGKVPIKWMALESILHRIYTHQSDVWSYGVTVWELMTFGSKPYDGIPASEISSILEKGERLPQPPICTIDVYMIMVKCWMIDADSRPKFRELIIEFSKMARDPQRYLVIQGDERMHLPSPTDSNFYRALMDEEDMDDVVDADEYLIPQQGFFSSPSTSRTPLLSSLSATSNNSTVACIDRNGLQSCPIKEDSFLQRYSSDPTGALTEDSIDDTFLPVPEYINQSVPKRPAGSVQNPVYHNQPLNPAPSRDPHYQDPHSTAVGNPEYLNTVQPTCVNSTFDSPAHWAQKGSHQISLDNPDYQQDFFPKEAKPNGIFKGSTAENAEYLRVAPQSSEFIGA

IC50: 22.9 nM
SMILES: Cc1cccc(NC(=O)Cn2c(=O)c3c(ncn3C)n(C)c2=O)c1 [T-1-MTA]
